Reference: paper PMC10175918 (Communications Biology, 2023)
Like-named read-outs stand apart in the source and are kept apart here.

How the values were obtained:
Experiment in all cases: TGFα-shedding assay-based GPCR screening with chimeric Gα subunit proteins
Assay type in all cases: cell-based
348 GPCRs [1] = target: T1, 348 GPCRs (Homo sapiens, UniProt P08912)
T1 construct: expressed in transfected cells; host or cells: HEK293A
T1 sequence (P08912 1-532): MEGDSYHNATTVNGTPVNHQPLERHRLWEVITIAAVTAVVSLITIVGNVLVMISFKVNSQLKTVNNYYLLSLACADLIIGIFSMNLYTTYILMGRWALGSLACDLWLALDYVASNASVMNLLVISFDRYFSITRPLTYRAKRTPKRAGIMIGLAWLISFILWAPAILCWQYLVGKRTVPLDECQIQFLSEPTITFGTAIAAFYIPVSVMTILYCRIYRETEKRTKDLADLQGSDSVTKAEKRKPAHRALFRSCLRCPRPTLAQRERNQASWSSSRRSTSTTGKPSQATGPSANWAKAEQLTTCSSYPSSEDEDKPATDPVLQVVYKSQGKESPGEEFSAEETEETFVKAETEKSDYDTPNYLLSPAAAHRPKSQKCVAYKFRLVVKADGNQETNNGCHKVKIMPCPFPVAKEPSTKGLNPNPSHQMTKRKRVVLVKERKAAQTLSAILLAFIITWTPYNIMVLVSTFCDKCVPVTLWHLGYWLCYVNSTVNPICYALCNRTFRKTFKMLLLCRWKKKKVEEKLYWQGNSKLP

348 GPCRs [2] = target: T2, 348 GPCRs (Homo sapiens, UniProt P20309)
T2 construct: expressed in transfected cells; host or cells: HEK293A
T2 sequence (P20309 whole entry): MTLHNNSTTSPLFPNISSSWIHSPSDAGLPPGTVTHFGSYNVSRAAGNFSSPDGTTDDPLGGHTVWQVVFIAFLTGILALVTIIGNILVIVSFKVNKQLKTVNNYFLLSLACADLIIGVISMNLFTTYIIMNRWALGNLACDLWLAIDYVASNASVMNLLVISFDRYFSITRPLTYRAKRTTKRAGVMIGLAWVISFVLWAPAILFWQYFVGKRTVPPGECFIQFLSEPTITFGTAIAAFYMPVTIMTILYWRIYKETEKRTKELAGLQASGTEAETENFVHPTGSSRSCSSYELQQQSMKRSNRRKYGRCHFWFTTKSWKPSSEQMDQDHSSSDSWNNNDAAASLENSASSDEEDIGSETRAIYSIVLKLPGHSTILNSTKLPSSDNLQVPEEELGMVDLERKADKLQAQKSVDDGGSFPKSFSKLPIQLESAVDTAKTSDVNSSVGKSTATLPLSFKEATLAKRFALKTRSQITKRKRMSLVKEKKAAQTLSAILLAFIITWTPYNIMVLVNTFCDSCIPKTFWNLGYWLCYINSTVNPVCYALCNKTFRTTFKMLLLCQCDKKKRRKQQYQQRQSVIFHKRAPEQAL

348 GPCRs [3] = target: T3, 348 GPCRs (Homo sapiens, UniProt P32248); settings: CCR7 (C-C motif chemokine receptor 7); 10µM, Favipiravir 100μM
T3 construct: expressed in transfected cells; host or cells: HEK293A
T3 sequence (P32248 25-378): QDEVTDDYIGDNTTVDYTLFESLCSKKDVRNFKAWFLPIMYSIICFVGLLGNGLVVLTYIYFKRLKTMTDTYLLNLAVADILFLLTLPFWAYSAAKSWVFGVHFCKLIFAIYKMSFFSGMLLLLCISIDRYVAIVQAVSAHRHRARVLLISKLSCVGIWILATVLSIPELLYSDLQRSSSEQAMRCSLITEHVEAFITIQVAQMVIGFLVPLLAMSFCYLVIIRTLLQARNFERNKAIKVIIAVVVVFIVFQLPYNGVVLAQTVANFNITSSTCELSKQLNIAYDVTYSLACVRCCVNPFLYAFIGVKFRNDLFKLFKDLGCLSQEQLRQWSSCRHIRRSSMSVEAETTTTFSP

348 GPCRs [4] = target: T4, 348 GPCRs (Homo sapiens, UniProt P34995); settings: 10µM, Favipiravir 100μM
T4 construct: expressed in transfected cells; host or cells: HEK293A
T4 sequence (P34995 1-402): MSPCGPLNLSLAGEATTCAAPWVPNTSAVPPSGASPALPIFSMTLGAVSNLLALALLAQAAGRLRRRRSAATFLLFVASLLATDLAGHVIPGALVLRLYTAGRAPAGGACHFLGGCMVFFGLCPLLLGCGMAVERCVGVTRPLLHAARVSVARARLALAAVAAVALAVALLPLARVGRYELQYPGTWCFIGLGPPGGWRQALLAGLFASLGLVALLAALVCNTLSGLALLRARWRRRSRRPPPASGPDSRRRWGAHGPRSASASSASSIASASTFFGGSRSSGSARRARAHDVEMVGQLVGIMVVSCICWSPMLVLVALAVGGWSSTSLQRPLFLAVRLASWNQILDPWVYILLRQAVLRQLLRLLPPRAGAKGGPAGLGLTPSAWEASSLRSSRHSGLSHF

348 GPCRs [5] = target: T5, 348 GPCRs (Homo sapiens, UniProt Q15761); settings: 10µM, Favipiravir 100μM
T5 construct: expressed in transfected cells; host or cells: HEK293A
T5 sequence (Q15761 1-445): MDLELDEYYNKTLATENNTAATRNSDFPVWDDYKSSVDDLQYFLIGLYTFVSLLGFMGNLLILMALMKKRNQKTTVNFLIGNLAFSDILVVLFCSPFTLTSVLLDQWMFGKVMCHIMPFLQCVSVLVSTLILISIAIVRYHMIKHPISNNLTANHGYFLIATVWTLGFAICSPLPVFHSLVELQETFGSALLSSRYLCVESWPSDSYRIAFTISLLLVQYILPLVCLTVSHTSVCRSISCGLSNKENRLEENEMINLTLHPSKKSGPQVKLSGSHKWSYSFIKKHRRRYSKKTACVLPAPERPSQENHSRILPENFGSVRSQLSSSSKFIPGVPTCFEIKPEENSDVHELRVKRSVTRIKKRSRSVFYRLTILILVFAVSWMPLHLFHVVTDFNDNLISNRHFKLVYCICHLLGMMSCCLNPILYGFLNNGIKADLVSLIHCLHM

348 GPCRs [6] = target: T6, 348 GPCRs (Homo sapiens, UniProt Q96LB0); settings: 10µM, Favipiravir 100μM
T6 construct: expressed in transfected cells; host or cells: HEK293A
T6 sequence (Q96LB0 whole entry): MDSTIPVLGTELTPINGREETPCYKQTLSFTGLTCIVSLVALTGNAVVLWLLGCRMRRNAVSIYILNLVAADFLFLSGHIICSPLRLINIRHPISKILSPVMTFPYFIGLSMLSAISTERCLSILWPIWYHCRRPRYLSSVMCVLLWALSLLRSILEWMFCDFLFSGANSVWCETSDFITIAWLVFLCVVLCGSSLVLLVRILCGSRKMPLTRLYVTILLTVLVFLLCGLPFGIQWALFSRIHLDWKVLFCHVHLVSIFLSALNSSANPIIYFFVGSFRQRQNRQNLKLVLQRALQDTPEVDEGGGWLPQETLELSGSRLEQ

348 GPCRs [7] = target: T7, 348 GPCRs (Homo sapiens, UniProt Q96P69); settings: 10µM, Favipiravir 100μM
T7 construct: expressed in transfected cells; host or cells: HEK293A
T7 sequence (Q96P69 whole entry): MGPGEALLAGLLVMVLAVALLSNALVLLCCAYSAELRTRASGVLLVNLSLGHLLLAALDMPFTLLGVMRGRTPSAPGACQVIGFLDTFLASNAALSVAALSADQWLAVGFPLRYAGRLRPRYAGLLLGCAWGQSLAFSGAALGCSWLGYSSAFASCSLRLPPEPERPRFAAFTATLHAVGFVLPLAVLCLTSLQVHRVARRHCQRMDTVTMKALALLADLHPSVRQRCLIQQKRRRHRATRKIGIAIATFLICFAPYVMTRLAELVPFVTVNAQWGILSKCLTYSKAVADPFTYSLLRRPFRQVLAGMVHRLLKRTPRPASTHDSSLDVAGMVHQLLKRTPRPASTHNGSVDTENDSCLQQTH

348 GPCRs [8] = target: T8, 348 GPCRs (Homo sapiens, UniProt Q96RI9); settings: 10µM, Favipiravir 100μM
T8 construct: expressed in transfected cells; host or cells: HEK293A
T8 sequence (Q96RI9 1-348): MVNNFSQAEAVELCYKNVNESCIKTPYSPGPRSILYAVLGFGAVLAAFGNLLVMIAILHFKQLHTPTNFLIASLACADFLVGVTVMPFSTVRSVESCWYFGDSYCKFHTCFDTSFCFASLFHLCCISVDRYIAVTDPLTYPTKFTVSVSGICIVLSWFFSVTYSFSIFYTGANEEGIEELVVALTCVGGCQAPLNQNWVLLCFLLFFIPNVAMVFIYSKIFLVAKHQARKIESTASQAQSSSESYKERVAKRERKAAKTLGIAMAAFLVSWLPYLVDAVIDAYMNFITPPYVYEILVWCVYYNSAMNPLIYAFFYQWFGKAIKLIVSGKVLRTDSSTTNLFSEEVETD

348 GPCRs [9] = target: T9, 348 GPCRs (Homo sapiens, UniProt Q9NQ84); settings: 10µM, Favipiravir 100μM
T9 construct: expressed in transfected cells; host or cells: HEK293A
T9 sequence (Q9NQ84 24-441): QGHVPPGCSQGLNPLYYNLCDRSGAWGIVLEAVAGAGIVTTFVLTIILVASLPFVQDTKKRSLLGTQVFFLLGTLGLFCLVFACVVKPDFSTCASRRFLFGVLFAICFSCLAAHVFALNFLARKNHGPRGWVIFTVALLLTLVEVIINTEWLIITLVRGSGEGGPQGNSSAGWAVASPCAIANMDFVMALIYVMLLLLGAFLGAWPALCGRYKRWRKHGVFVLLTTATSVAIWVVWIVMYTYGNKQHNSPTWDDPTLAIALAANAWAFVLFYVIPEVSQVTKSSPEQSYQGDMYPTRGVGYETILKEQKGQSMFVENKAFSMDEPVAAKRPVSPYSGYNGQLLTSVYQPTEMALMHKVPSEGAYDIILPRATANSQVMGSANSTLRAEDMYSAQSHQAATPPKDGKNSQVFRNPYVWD

[10] = GPCR M5 (Muscarinic acetylcholine receptor M5), read-out: % GPCR activation compared to TPA
[11] = GPCR M3 (Muscarinic acetylcholine receptor M3), read-out: % GPCR activation compared to TPA
[12] = EP1 (prostaglandin E receptor 1), read-out: % GPCR activation compared to TPA
[13] = NPY5R (neuropeptide Y Receptor Y5), read-out: % GPCR activation compared to TPA
[14] = MRGPRX3 (MAS-related GPR, member X3), read-out: % GPCR activation compared to TPA
[15] = GPR78 (G Protein-Coupled Receptor 78), read-out: % GPCR activation compared to TPA
[16] = TAAR9 (trace amine associated receptor 9), read-out: % GPCR activation compared to TPA
[17] = GPRC5C (G protein-coupled receptor, family C, group 5, member C), read-out: % GPCR activation compared to TPA
[18] = read-out: % GPCR activation compared to TPA, GPCR M5 (Muscarinic acetylcholine receptor M5)
[19] = read-out: % GPCR activation compared to TPA, GPCR M3 (Muscarinic acetylcholine receptor M3)
[20] = read-out: % GPCR activation compared to TPA, EP1 (prostaglandin E receptor 1)
[21] = read-out: % GPCR activation compared to TPA, NPY5R (neuropeptide Y Receptor Y5)
[22] = read-out: % GPCR activation compared to TPA, MRGPRX3 (MAS-related GPR, member X3)
[23] = read-out: % GPCR activation compared to TPA, GPR78 (G Protein-Coupled Receptor 78)
[24] = read-out: % GPCR activation compared to TPA, TAAR9 (trace amine associated receptor 9)
[25] = read-out: % GPCR activation compared to TPA, GPRC5C (G protein-coupled receptor, family C, group 5, member C)

Row | activation at 10 µM (348 GPCRs [1]; [10]) [%] | activation at 10 µM (348 GPCRs [2]; [11]) [%] | % GPCR activation compared to TPA (348 GPCRs [3]) [%] | activation at 100 µM (348 GPCRs [4]; [12]) [%] | activation at 100 µM (348 GPCRs [5]; [13]) [%] | activation at 100 µM (348 GPCRs [6]; [14]) [%] | activation at 100 µM (348 GPCRs [7]; [15]) [%] | activation at 100 µM (348 GPCRs [8]; [16]) [%] | activation at 100 µM (348 GPCRs [9]; [17]) [%] | activation at 100 µM (348 GPCRs [1]; GPCR M5 (Muscarinic acetylcholine receptor M5), 100μM, read-out: % GPCR activation compared to TPA) [%] | activation at 100 µM (348 GPCRs [2]; GPCR M3 (Muscarinic acetylcholine receptor M3), 100μM, read-out: % GPCR activation compared to TPA) [%] | Compound | activation at 10 µM (348 GPCRs [1]; [18]) [%] | activation at 10 µM (348 GPCRs [2]; [19]) [%] | activation at 100 µM (348 GPCRs [4]; [20]) [%] | activation at 100 µM (348 GPCRs [5]; [21]) [%] | activation at 100 µM (348 GPCRs [6]; [22]) [%] | activation at 100 µM (348 GPCRs [7]; [23]) [%] | activation at 100 µM (348 GPCRs [8]; [24]) [%] | activation at 100 µM (348 GPCRs [9]; [25]) [%]
1 | 2.9 | 3.5 | -0.998 | -1.84 | 0.212 | -0.726 | 0.894 | -2.32 | -1 |  |  | N#C[C@@]1(c2ccc3c(N)ncnn23)O[C@H](CO)[C@@H](O)[C@H]1O [GS441524] |  |  |  |  |  |  |  | 
2 |  |  | -0.3349 | -1.04 | -1.82 | -0.33 | -0.429 | -0.821 | -1.31 | 0.695 | 0.164 | NC(=O)c1nc(F)cnc1O [favipiravir, 6-fluoro-3-hydroxy-2-pyrazinecarboxamide] |  |  |  |  |  |  |  | 
3 | -0.639 | -0.147 | 0.5462 | 0.204 | -5.02 | -1.5 | -0.581 | -1.9 | -0.707 |  |  | CC(C)C(=O)OC[C@H]1O[C@@H](n2ccc(NO)nc2=O)[C@H](O)[C@@H]1O [molnupiravir] |  |  |  |  |  |  |  | 
4 |  |  |  |  |  |  |  |  |  |  |  | CCC(CC)COC(=O)[C@H](C)N[P@](=O)(OC[C@H]1O[C@@](C#N)(c2ccc3c(N)ncnn23)[C@H](O)[C@@H]1O)Oc1ccccc1 [remdesivir] | -0.595 | 2.85 | 0.488 | 0.934 | -0.608 | 2.44 | 0.293 | -1.81

Row | Compound | activation at 10 µM (348 GPCRs [1]; [10]) [%] | activation at 10 µM (348 GPCRs [2]; [11]) [%] | % GPCR activation compared to TPA (348 GPCRs [3]) [%] | activation at 100 µM (348 GPCRs [4]; [12]) [%] | activation at 100 µM (348 GPCRs [5]; [13]) [%] | activation at 100 µM (348 GPCRs [6]; [14]) [%] | activation at 100 µM (348 GPCRs [7]; [15]) [%] | activation at 100 µM (348 GPCRs [8]; [16]) [%] | activation at 100 µM (348 GPCRs [9]; [17]) [%] | activation at 100 µM (348 GPCRs [1]; GPCR M5 (Muscarinic acetylcholine receptor M5), 100μM, read-out: % GPCR activation compared to TPA) [%] | activation at 100 µM (348 GPCRs [2]; GPCR M3 (Muscarinic acetylcholine receptor M3), 100μM, read-out: % GPCR activation compared to TPA) [%] | activation at 10 µM (348 GPCRs [1]; [18]) [%] | activation at 10 µM (348 GPCRs [2]; [19]) [%] | activation at 100 µM (348 GPCRs [4]; [20]) [%] | activation at 100 µM (348 GPCRs [5]; [21]) [%] | activation at 100 µM (348 GPCRs [6]; [22]) [%] | activation at 100 µM (348 GPCRs [7]; [23]) [%] | activation at 100 µM (348 GPCRs [8]; [24]) [%] | activation at 100 µM (348 GPCRs [9]; [25]) [%]
5 | CC(C)OC(=O)[C@H](C)N[P@](=O)(OC[C@H]1O[C@@H](n2ccc(=O)[nH]c2=O)[C@](C)(F)[C@@H]1O)Oc1ccccc1 [sofosbuvir] |  |  | -0.9167 |  |  |  |  |  |  |  |  | -1.43 | -1.32 | -0.685 | -4.22 | 0.522 | 2.01 | -1.74 | -0.501
